Values joined by “and” are separate entries in the source; they are usually repeats but may differ in a detail not shown here. Identical values can stand only once. Like-named read-outs stand apart in the source and are kept apart here.
Test system: Coptotermes formosanus
Settings: for Mean Rating (termite attack): mean of 4 specimens; for Mean Rating (termite attack) / Termite Attack Rating: 4 weeks sand culture; for Termite Attack Rating: single specimen
Excerpt: A laboratory test was undertaken to determine the toxic values of novel actives against termites. The active materials used were TBBA, TBBE [4,4′-ethylidenebis(2,6-dibromophenol)] [CAS RN=12639-25-3] (Sample Number 1392-82-03); TBBZ [4,4′-cyclohexylidene(2,6-dibromophenol)] [CAS RN=53350-96-2] (Sample Number 1392-72-03) and TBA, 2,2′,6-tribromo-4,4′-isopropylidenediphenol, CAS 6386-73-8 (Sample Number 1392-75-03).
The test was undertaken largely according to the strictures laid down in ASTM 3345-74 (the American standard laboratory test to assess the termite resistant properties of wood to wood destroying termites). The test method allows for the exposure of treated buried wood blocks to termites (Reticulitermes or Coptotermes spp.) over a period of 4 weeks. Efficacy of the product is determined by the extent of termite damage to the treated timber specimens through a scoring system. The test was slightly modified from the standard ASTM test by reducing the number of replicate wood specimens from 5 to 4.
Score 1: Attempted attack
The toxic values of the preservative product (in kg/m^3 of wood) fall between two values as follows:
1) The lowest concentration which protects the wood (i.e. the concentration at which none of the test specimens show a degree of attack greater than 1).
The termites employed were Coptotermes formosanus.
All wood bock specimens were of Southern Yellow Pine sapwood (Pinus spp.) with dimensions of 25.4×25.4×6.4 mm in accordance with ASTM D3345-74. All blocks were vacuum impregnated with the relevant solutions in accordance with ASTM D3345-74. Distribution of blocks in the test was as follows:
The test specimens were conditioned and subjected to a leaching schedule (after vacuum impregnation) as stipulated in ASTM D1413-76 (as recommended in ASTM D3345-74). All test specimens were then air dried for two weeks to constant weight.
The specimens were each positioned at the base of a 500 ml polyethylene culture jar (numbered according to each test specimen) and covered with 200 g of sand (pre-washed, sterilised and air conditioned in the laboratory) to which was added 25 g of de-ionised water. A further two containers containing watered sand but no timber were also prepared. All the jars were sealed (lids pre-pierced and covered with stainless steel mesh for aeration).
Two days after specimen placement, 200 termites were added to each culture jar (90% workers and 10% soldiers) and the jars re-sealed. The jars were incubated at a mean temperature and relative humidity of 27.5° C. and 75-90% for 4 weeks. The containers were provided with an artificial lighting regime of 10 hours light and 14 hours darkness.
After 1 week and 4 weeks each container was examined to determine termite mortality and normal tunneling behaviour patterns as follows:
Is there tunneling present: YES/NO
Are there any termites on the surface of the soil: YES/NO (if yes how many, i.e. 1-25% of pop, 26-50% of pop, 51-100% of pop.)
Are any dead termites visible: YES/NO (if yes how many, 1-33%, 34-66%, 67-100%)
After 4 weeks the test specimens were removed and cleaned of debris. Each block was examined and visually rated for termite damage using the scoring system detailed above.

[1] = 1 week, solution conc. 1%, ethanol carrier
[2] = 1 week, solution conc. 3%, ethanol carrier
[3] = 1 week, solution conc. 5%, ethanol carrier
[4] = 1 week, solution conc. 7%, ethanol carrier
[5] = 1 week, solution conc. 10%, ethanol carrier
[6] = 4 weeks, solution conc. 1%, ethanol carrier
[7] = 4 weeks, solution conc. 3%, ethanol carrier
[8] = 4 weeks, solution conc. 5%, ethanol carrier
[9] = 4 weeks, solution conc. 7%, ethanol carrier
[10] = 4 weeks, solution conc. 10%, ethanol carrier
[11] = solution conc. 1%, ethanol carrier
[12] = solution conc. 3%, ethanol carrier
[13] = solution conc. 5%, ethanol carrier
[14] = solution conc. 7%, ethanol carrier
[15] = solution conc. 10%, ethanol carrier
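Wherever Termite Attack Rating is given: score 0 no attack 2 slight 3 average 4 strong attack.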

CC(C)(c1cc(Br)c(O)c(Br)c1)c1cc(Br)c(O)c(Br)c1 [TBBA, Tetrabromobisphenol A]
Surface Activity (termites on the surface of the soil) [1]: No/No | Tunneling Activity [1]: Yes/Yes | Visible Mortality [1]: No/No | Surface Activity (termites on the surface of the soil) [2]: No/No | Tunneling Activity [2]: Yes/Yes | Visible Mortality [2]: No and No/No | Surface Activity (termites on the surface of the soil) [3]: 1-25 % (of pop.) | Tunneling Activity [3]: Yes/Yes | Surface Activity (termites on the surface of the soil) [4]: No/No | Tunneling Activity [4]: Yes/Yes | Visible Mortality [4]: No | Surface Activity (termites on the surface of the soil) [5]: No | Tunneling Activity [5]: Yes/Yes | Visible Mortality [5]: No | Surface Activity (termites on the surface of the soil) [6]: No/No | Tunneling Activity [6]: Yes/Yes | Visible Mortality [6]: No/No | Surface Activity (termites on the surface of the soil) [7]: No/No | Tunneling Activity [7]: Yes/Yes | Surface Activity (termites on the surface of the soil) [8]: No | Tunneling Activity [8]: Yes/Yes | Surface Activity (termites on the surface of the soil) [9]: No/No | Tunneling Activity [9]: Yes/Yes | Surface Activity (termites on the surface of the soil) [10]: 1-25 % (of pop.) | Tunneling Activity [10]: Yes/Yes | Visible Mortality [10]: 67-100 % (of pop.) | reduction in termite attack (concentrated solutions, followed by leaching): a significant reduction in termite attack | repellent effect on termites (surface activity data) (ethanol carrier): a degree of termite repellency throughout the incubation period | toxic value, lower (concentration at which the wood is no longer sufficiently protected) (mean loading, solution concentration 5%, ethanol carrier, leached, 4 weeks): 32.52 kg/m^3 | toxic value, upper (lowest concentration which protects the wood) (mean loading, solution concentration 7%, ethanol carrier, leached, 4 weeks): 44.00 kg/m^3 | Mean Rating (termite attack) [11]: 2.75 | Termite Attack Rating [11]: 3 and 2 and 4 | Mean Rating (termite attack) [12]: 2.25 | Termite Attack Rating [12]: 2 and 3 | Mean Rating (termite attack) [13]: 1.50 | Termite Attack Rating [13]: 1 and 2 | Mean Rating (termite attack) [14]: 1.00 | Termite Attack Rating [14]: 1 | Mean Rating (termite attack) [15]: 1.00 | Termite Attack Rating [15]: 1

Source: patent publication US20040266885A1, “Wood preservative compositions” (priority 2001, published 2004)
